The source of these data is US20060030549A1, “Paricalcitol(zemplar) capsule controls secondary hyperparathyroidism (SHPT) in CKD stage 5 patients” (priority 2003, published 2006).

The subject of the series is CKD stage 5 subjects on hemodialysis (HD) or peritoneal dialysis (PD). Description: Double-blind, placebo-controlled, multicenter studies of paricalcitol capsule in secondary hyperparathyroidism. The class given is in vivo, human. The settings on record: for duration of iPTH/PTH reduction: HD and PD subjects, 12-week treatment; for AE (adverse event) profile: versus placebo group. As to the method:
Paricalcitol capsule is an oral formulation of paricalcitol injection, a vitamin D analog effective in the prevention and treatment of SHPT associated with chronic renal failure. Three doubleblind, placebo-controlled, multicenter studies were conducted to evaluate the safety and efficacy of paricalcitol capsule in CKD stage 5 subjects on hemodialysis (HD) or peritoneal dialysis (PD). After a 4-8 week washout period, 225 subjects (HD: 150, PD: 75) with iPTH≧300 pg/mL, serum Ca 8.0-10.5 mg/dL and Ca×P04<65 were randomized (1:1) and treated with paricalcitol capsule or placebo 3× weekly for 12 weeks. Initial doses were based on iPTH levels at baseline (initial mcg dose=iPTH/60). Subsequent dose adjustments of 2 mcg were based on the weekly Ca, Ca×P04, and iPTH results; dose increases occurred every 2 weeks and decreases once per week.

In the case of `C[C@H](/C=C/[C@H](C)C(C)(C)O)[C@H]1CC[C@H]2/C(=C/C=C3C[C@@H](O)C[C@H](O)C3)CCC[C@]12C` [paricalcitol], the “duration of iPTH/PTH reduction” value is listed as “sustained throughout the treatment” and the “AE (adverse event) profile” value is listed as “comparable between the groups”. Further, the “subjects with 2 consecutive 30 decreases in iPTH” value (95/105 subjects, capsule 3x weekly for 12 weeks, initial mcg dose = iPTH/60, p<0.001 vs placebo) was found to be 90%. Moreover, for the setting “listed as paricalcitol capsule”, the “duration of iPTH/PTH reduction” value was “sustained reduction of PTH” and the “AE (adverse event) profile” value is reported as “comparable to placebo”. The “mean iPTH reduction” value (by Week 3, 3x weekly dosing) amounted to 30%. The “influence of subject factors on efficacy” value (demographics, disease severity, baseline P04, phosphate binder type) is “not influenced by demographics, disease severity, baseline P04 or types of phosphate binder usage”. Moreover, the “mean serum P04, maximum value” (increased initially to the maximum, then decreased) came out at 5.7 mg/dL. Moreover, the “mean Ca” value (throughout 12-week treatment) was “under 10.0 mg/dL”.
